In ChEMBL document CHEMBL1201862, “PubChem BioAssay data set” (2004):
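Grown in 96-well plates, cells were treated for 48 hours with each compound at five concentrations. Insufficient inhibition: endpoint recorded as highest concentration tested. GI50 marks 50% less growth.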 Active and inactive are the calls of the source. No stated cut-off is given here; in the data, active = GI50 up to about 1.1 µM and inactive = higher.

Experiments:
Test in all cases: NCI tumour cell line growth inhibition, 48 h
[1] = tested on: MDA-N
[2] = tested on: BT-549
[3] = tested on: OVCAR-3
[4] = tested on: SW-620
[5] = tested on: SF-295
[6] = tested on: NCI-H460
[7] = tested on: MDA-MB-231
[8] = tested on: ACHN
[9] = tested on: M14
[10] = tested on: SK-MEL-5
[11] = tested on: UACC-257
[12] = tested on: HCT-15
[13] = tested on: DU-145
[14] = tested on: HOP-92
[15] = tested on: A549
[16] = tested on: CCRF-CEM
[17] = tested on: CAKI-1
[18] = tested on: PC-3
[19] = tested on: HOP-62
[20] = tested on: SK-OV-3
[21] = tested on: TK-10
[22] = tested on: HT-29
[23] = tested on: OVCAR-8
[24] = tested on: MCF7
[25] = tested on: Hs-578T
[26] = tested on: HL-60
[27] = tested on: NCI-H23
[28] = tested on: IGROV-1
[29] = tested on: Malme-3M
[30] = tested on: SF-268
[31] = tested on: SR
[32] = tested on: UO-31
[33] = tested on: RXF 393
[34] = tested on: COLO 205
[35] = tested on: U-251
[36] = tested on: SK-MEL-28
[37] = tested on: SN12C
[38] = tested on: NCI/ADR-RES
[39] = tested on: RPMI-8226
[40] = tested on: NCI-H522
[41] = tested on: EKVX
[42] = tested on: OVCAR-5
[43] = tested on: SF-539
[44] = tested on: SK-MEL-2
[45] = tested on: SNB-19
[46] = tested on: LOX IMVI
[47] = tested on: MOLT-4
[48] = tested on: HCT-116
[49] = tested on: KM12
[50] = tested on: NCI-H226
[51] = tested on: A498
[52] = tested on: T47D
[53] = tested on: MDA-MB-435
[54] = tested on: UACC-62
[55] = tested on: 786-0
[56] = tested on: K562
[57] = tested on: OVCAR-4
[58] = tested on: SNB-75
[59] = tested on: HCC 2998

O=[N+]([O-])c1cccc(/C=N/N=c2\ccc3ccccc3[nH]2)c1O
GI50 [1]: 5.64 µM (inactive)
GI50 [2]: 3.78 µM (inactive)
GI50 [3]: 0.185 µM (active)
GI50 [4]: 0.632 µM (active)
GI50 [5]: 1.01 µM (active)
GI50 [6]: 0.448 µM (active)
GI50 [7]: 2.78 µM (inactive)
GI50 [8]: 0.478 µM (active)
GI50 [9]: 1.13 µM (inactive)
GI50 [10]: 0.984 µM (active)
GI50 [11]: 2.28 µM (inactive)
GI50 [12]: 0.146 µM
GI50 [13]: 2.26 µM (inactive)
GI50 [14]: 7.5 µM (inactive)
GI50 [15]: 2.4 µM (inactive)
GI50 [16]: 0.175 µM (active)
GI50 [17]: 0.665 µM (active)
GI50 [18]: 2.7 µM (inactive)
GI50 [19]: 0.815 µM (active)
GI50 [20]: 1.86 µM (inactive)
GI50 [21]: 2.51 µM (inactive)
GI50 [22]: 0.632 µM (active)
GI50 [23]: 2.21 µM (inactive)
GI50 [24]: 1.94 µM (inactive)
GI50 [25]: 16.2 µM (inactive)
GI50 [26]: 0.619 µM (active)
GI50 [27]: 1.82 µM (inactive)
GI50 [28]: 2.02 µM (inactive)
GI50 [29]: 1.88 µM (inactive)
GI50 [30]: 1.14 µM (inactive)
GI50 [31]: 0.466 µM (active)
GI50 [32]: 0.335 µM (active)
GI50 [33]: 2.07 µM (inactive)
GI50 [34]: 2.21 µM (inactive)
GI50 [35]: 1.11 µM (active)
GI50 [36]: 2.79 µM (inactive)
GI50 [37]: 1.53 µM (inactive)
GI50 [38]: 0.151 µM (active)
GI50 [39]: 1.37 µM (inactive)
GI50 [40]: 1.2 µM (inactive)
GI50 [41]: 1.48 µM (inactive)
GI50 [42]: 3.08 µM (inactive)
GI50 [43]: 1.84 µM (inactive)
GI50 [44]: 4.4 µM (inactive)
GI50 [45]: 4.92 µM (inactive)
GI50 [46]: 1.47 µM (inactive)
GI50 [47]: 0.83 µM (active)
GI50 [48]: 0.526 µM (active)
GI50 [49]: 1.87 µM (inactive)
GI50 [50]: 2.64 µM (inactive)
GI50 [51]: 5.68 µM (inactive)
GI50 [52]: 0.807 µM (active)
GI50 [53]: 2.45 µM (inactive)
GI50 [54]: 1.43 µM (inactive)
GI50 [55]: 0.658 µM (active)
GI50 [56]: 1.35 µM (inactive)
GI50 [57]: 1.07 µM (active)

COC(=O)C1CC23C4=C(CCC41)CCC1CN4CC(C)C(CC(OC(C)=O)C12COC(C)=O)C43O (centres undefined)
GI50 [1]: > 100 µM (inactive)
GI50 [2]: > 100 µM (inactive)
GI50 [3]: > 100 µM (inactive)
GI50 [4]: > 100 µM (inactive)
GI50 [5]: > 100 µM (inactive)
GI50 [6]: > 100 µM (inactive)
GI50 [7]: > 100 µM (inactive)
GI50 [58]: > 100 µM (inactive)
GI50 [8]: > 100 µM (inactive)
GI50 [9]: > 100 µM (inactive)
GI50 [10]: > 100 µM (inactive)
GI50 [11]: > 100 µM (inactive)
GI50 [12]: > 100 µM
GI50 [13]: > 100 µM (inactive)
GI50 [14]: > 100 µM (inactive)
GI50 [15]: > 100 µM (inactive)
GI50 [16]: > 100 µM (inactive)
GI50 [17]: > 100 µM (inactive)
GI50 [18]: > 100 µM (inactive)
GI50 [19]: > 100 µM (inactive)
GI50 [20]: > 100 µM (inactive)
GI50 [21]: > 100 µM (inactive)
GI50 [22]: > 100 µM (inactive)
GI50 [23]: > 100 µM (inactive)
GI50 [24]: > 100 µM (inactive)
GI50 [25]: > 100 µM (inactive)
GI50 [26]: > 100 µM (inactive)
GI50 [27]: > 100 µM (inactive)
GI50 [28]: > 100 µM (inactive)
GI50 [29]: > 100 µM (inactive)
GI50 [30]: > 100 µM (inactive)
GI50 [32]: > 100 µM (inactive)
GI50 [33]: > 100 µM (inactive)
GI50 [59]: > 100 µM (inactive)
GI50 [34]: > 100 µM (inactive)
GI50 [35]: > 100 µM (inactive)
GI50 [36]: > 100 µM (inactive)
GI50 [37]: > 100 µM (inactive)
GI50 [38]: > 100 µM (inactive)
GI50 [39]: > 100 µM (inactive)
GI50 [40]: > 100 µM (inactive)
GI50 [41]: > 100 µM (inactive)
GI50 [42]: > 100 µM (inactive)
GI50 [43]: > 100 µM (inactive)
GI50 [44]: > 100 µM (inactive)
GI50 [45]: > 100 µM (inactive)
GI50 [46]: > 100 µM (inactive)
GI50 [47]: 68.4 µM (inactive)
GI50 [48]: > 100 µM (inactive)
GI50 [49]: > 100 µM (inactive)
GI50 [51]: > 100 µM (inactive)
GI50 [52]: > 100 µM (inactive)
GI50 [53]: > 100 µM (inactive)
GI50 [54]: > 100 µM (inactive)
GI50 [55]: > 100 µM (inactive)
GI50 [56]: > 100 µM (inactive)
GI50 [57]: > 100 µM (inactive)

Cc1cccc2c(N)c3cccc(C(=O)NCC[N+](C)(C)Cc4sc(N5CCOCC5)nc4[N+](=O)[O-])c3nc12
GI50 [1]: 3.82 µM (inactive)
GI50 [2]: 13.1 µM (inactive)
GI50 [3]: 2.09 µM (inactive)
GI50 [4]: 0.6 µM (active)
GI50 [5]: 1.1 µM (active)
GI50 [7]: 2.28 µM (inactive)
GI50 [58]: 5.86 µM (inactive)
GI50 [8]: 0.381 µM (active)
GI50 [9]: 2.77 µM (inactive)
GI50 [10]: 5.01 µM (inactive)
GI50 [11]: 6.9 µM (inactive)
GI50 [12]: 1.08 µM
GI50 [13]: 4.01 µM (inactive)
GI50 [14]: 15.2 µM (inactive)
GI50 [15]: 0.178 µM (active)
GI50 [16]: 0.217 µM (active)
GI50 [17]: 0.344 µM (active)
GI50 [18]: 3.37 µM (inactive)
GI50 [19]: 0.491 µM (active)
GI50 [20]: 1.82 µM (inactive)
GI50 [21]: 10.3 µM (inactive)
GI50 [22]: 0.444 µM (active)
GI50 [23]: 2.12 µM (inactive)
GI50 [24]: 0.438 µM (active)
GI50 [25]: 0.748 µM (active)
GI50 [26]: 0.071 µM (active)
GI50 [27]: 2.26 µM (inactive)
GI50 [28]: 1.25 µM (inactive)
GI50 [29]: 5.93 µM (inactive)
GI50 [30]: 23 µM (inactive)
GI50 [32]: 4.17 µM (inactive)
GI50 [33]: 4.36 µM (inactive)
GI50 [59]: 1.41 µM (inactive)
GI50 [34]: 1.2 µM (inactive)
GI50 [35]: 3.04 µM (inactive)
GI50 [36]: 29.7 µM (inactive)
GI50 [37]: 1.65 µM (inactive)
GI50 [38]: 3.12 µM (inactive)
GI50 [39]: 3.13 µM (inactive)
GI50 [40]: 1.12 µM (inactive)
GI50 [41]: 4.26 µM (inactive)
GI50 [42]: 1.32 µM (inactive)
GI50 [43]: 1.12 µM (active)
GI50 [44]: 22.6 µM (inactive)
GI50 [45]: 4.82 µM (inactive)
GI50 [46]: 0.685 µM (active)
GI50 [47]: 0.231 µM (active)
GI50 [48]: 1.93 µM (inactive)
GI50 [49]: 2.43 µM (inactive)
GI50 [50]: 1.51 µM (inactive)
GI50 [51]: 11.4 µM (inactive)
GI50 [52]: 12.7 µM (inactive)
GI50 [53]: 5.21 µM (inactive)
GI50 [54]: 3.89 µM (inactive)
GI50 [55]: 0.547 µM (active)
GI50 [56]: 1.16 µM (inactive)
GI50 [57]: 4.11 µM (inactive)

Cc1cc(OCc2nc(N)nc(N)c2-c2ccc(Cl)c(Cl)c2)ccc1[N+](=O)[O-]
GI50 [1]: 0.0776 µM (active)
GI50 [2]: 1.03 µM (active)
GI50 [3]: 0.282 µM (active)
GI50 [4]: 0.235 µM (active)
GI50 [5]: 0.0678 µM (active)
GI50 [6]: 0.0462 µM (active)
GI50 [7]: 0.384 µM (active)
GI50 [58]: 2.1 µM (inactive)
GI50 [8]: 0.0746 µM (active)
GI50 [9]: 0.104 µM (active)
GI50 [10]: 0.224 µM (active)
GI50 [11]: 0.0451 µM (active)
GI50 [12]: 0.0893 µM
GI50 [13]: 0.582 µM (active)
GI50 [14]: 4.92 µM (inactive)
GI50 [15]: 0.0352 µM (active)
GI50 [16]: 0.0235 µM (active)
GI50 [17]: 0.558 µM (active)
GI50 [18]: 0.467 µM (active)
GI50 [19]: 0.379 µM (active)
GI50 [20]: 3.01 µM (inactive)
GI50 [21]: 0.401 µM (active)
GI50 [22]: 0.0927 µM (active)
GI50 [23]: 0.556 µM (active)
GI50 [24]: 0.262 µM (active)
GI50 [25]: 12.2 µM (inactive)
GI50 [26]: 0.356 µM (active)
GI50 [27]: 0.141 µM (active)
GI50 [28]: 0.0723 µM (active)
GI50 [29]: 2.59 µM (inactive)
GI50 [30]: 0.771 µM (active)
GI50 [31]: 0.0237 µM (active)
GI50 [32]: 0.791 µM (active)
GI50 [33]: 0.794 µM (active)
GI50 [34]: 0.705 µM (active)
GI50 [35]: 0.0889 µM (active)
GI50 [36]: 0.531 µM (active)
GI50 [37]: 0.726 µM (active)
GI50 [38]: 0.404 µM (active)
GI50 [39]: 1.46 µM (inactive)
GI50 [40]: 0.893 µM (active)
GI50 [41]: 0.953 µM (active)
GI50 [42]: 0.45 µM (active)
GI50 [43]: 0.451 µM (active)
GI50 [44]: 1.41 µM (inactive)
GI50 [45]: 0.743 µM (active)
GI50 [46]: 0.0818 µM (active)
GI50 [47]: 0.0933 µM (active)
GI50 [48]: 0.0502 µM (active)
GI50 [49]: 0.692 µM (active)
GI50 [50]: 8.67 µM (inactive)
GI50 [51]: 0.103 µM (active)
GI50 [52]: 2.44 µM (inactive)
GI50 [53]: 0.0721 µM (active)
GI50 [54]: 0.0585 µM (active)
GI50 [55]: 0.104 µM (active)
GI50 [56]: 0.0255 µM (active)
GI50 [57]: 2.19 µM (inactive)
